Measurements as given in patent US9011879B2 (priority 2009, dated 2015).

Legend:
[1] = tested on: sympathetic neurons; conditions: cited from earlier work
[2] = tested on: kidney norepinephrine (NE); parameters: species or system porcine; conditions: pig, in vivo
[3] = tested on: renal arteries; conditions: pig, in vivo

Compound	concentration accumulated within neurons in vivo [1] [µM]	average NE level in renal cortex tissue [2]	reduction in renal cortex NE [2] [%]	perivascular indications of denervation (histology) [3]
N=C(N)NCCN1CCCCCCC1 [guanethidine, Guanidine, [2-(hexahydro-1(2H)-azocinyl)ethyl]-]	500 to 1000			
Guanidine, [2-(hexahydro-1(2H)-azocinyl)ethyl]-, sulfate (1:1) [Guanethidine monosulfate]		64	86	nerve degeneration characterized by hypervacuolization and eosinophilia
